Columns and labels:
Blb/c mice = assay: Lipopolysaccharide (LPS) induced in vivo kidney inflammation, urine protein; conditions: oral 100 mg/Kg; LPS 2.5 mg/Kg/day i.p. for 5 days; urine on day 5 and day 10; FIG. 3
Method: Blb/c mice were kept in pathogen-free environment under 12:12 light-dark cycle with food (laboratory rodent diet 5001 purchased from PMI Nutrition International Inc. MO, USA) and water (i.e., distilled water) provided ad libitum, ambient temperature and relative humidity were respectively set at 22±3° C. and 50±20%. All procedures involving animal studies of the present disclose e comply with the “Guideline for the Care and Use of Laboratory Animals” issued by The Chinese-Taipei Society of Laboratory Animal Sciences.
In this example, to evaluate the therapeutic or prophylactic function of the composition of example 1.2, animals were first injected intraperitoneally with lipopolysaccharide (LPS) to induce in vivo kidney inflammation before being subject to the treatment of the composition of example 1.2.
Blb/c mice (6 weeks old) were randomly assigned to two groups, and injected intraperitoneally with lipopolysaccharide (LPS, 2.5 mg/Kg/day) for 5 consecutive days so as to induce kidney inflammation. […] Urine samples were respectively collected on the fifth and the tenth day after the experiment started, and analyzed for the level of urine protein therein. […]

MDCK cells = assay: Cisplatin induced in vitro kidney cell apoptosis (mitochondria membrane potential, DiOC6 staining); type: cell-based, canine; conditions: FIG. 1A
Method: Madin-Darby canine kidney (MDCK) cells (1.5×10^5 cells/mL) were cultured and maintained in Dulbecco's modified Eagle medium (DMEM) supplemented with 10% fetal bovine serum (FBS), 100 units/mL penicillin, […] streptomycin, 2 mM L-glutamine, non-essential amino acids and sodium pyruvate, and maintained in 5% CO2 at 37° C. until reached 80% confluence, then were subject to cell passages.
MDCK cells were cultured in according to procedures described in the “Materials and Methods” section. To start the experiment, MDCK cells were first incubated with 50 μM cisplatin for 4 hrs, then various concentrations of the compound of formula (I) ([…] or 100 μg/mL) or the YKII-10 composition of example 1.2 (25 to 100 μg/mL) were given to cisplatin-treated cells and further incubated for another 24 hrs. Mitochondria membrane potentials were then measured by staining the live cells with fluorescent dyes (e.g., 50 nM DiOC6), in which 50 nM DiOC6 were added to cells and incubated at 37° C. for 30 min. The cells were then washed twice with phosphate buffer solution before subjecting to microscopy analysis using the inverted fluorescent microscope. […] Results are illustrated in FIGS. 1A and 1B.

C[C@H](CCC(=O)O)[C@H]1C[C@H](O)[C@@]2(C)C3=C(C(=O)C[C@]12C)[C@@]1(C)CCC(=O)C(C)(C)[C@@H]1C[C@@H]3O [compound of formula (I)]
urine protein level (Blb/c mice): effective in reducing
reversal of cisplatin-induced apoptosis of MDCK cell (MDCK cells; 50 μg/mL or 100 μg/mL for 24 hrs after 50 μM cisplatin for 4 hrs): capable of reversing
recovery on the membrane potential (MDCK cells; 100 μg/mL for 24 hrs after 50 μM cisplatin for 4 hrs, MDCK cells): about 80%
